Data from US10597366B2, “Aryl ethers and uses thereof” (Peloton Therapeutics, Inc., priority 2013, dated 2020).
Like-named read-outs stand apart in the source and are kept apart here.

Test system: 786-O-Hif-Luc cells (luciferase gene driven by multiple HIF responsive elements)
Experiment: Luciferase Assay
Type: cell-based
Settings: 24 h, read-out: Mean Luciferease EC50
Protocol: A pool of infected cells were then selected against 2 μg/mL of puromycin (P8833, Sigma) for 10 days followed by limited dilution to select single clones.
Each concentration was tested in triplicate. After about 24 hours, luciferase activity was determined using ONE-Glo Luciferase Assay Reagent (E6110, Promega) following the manufacturer's recommended procedure. EC50 were calculated by using Dotmatics software.

[1] = 786-O-Hif-Luc cells, about 24 hours

An EC50 [1] of 280 nM was found for CS(=N)(=O)c1ccc(Oc2cc(F)cc(F)c2)c2c1[C@H](O)C(F)(F)C2 (stereo partly drawn) [Compound 192, ((S)-7-(3,5-Difluorophenoxy)-2,2-difluoro-3-hydroxy-2,3-dihydro-1H-inden-4-yl)(imino)(methyl)-λ^6-sulfanone] in this work.

An EC50 [1] of 330 nM was found for O=S(=O)(c1ccc(Oc2ccc(F)c(Br)c2)c2c1[C@H](O)C(F)(F)C2)C(F)F [Compound 194, (S)-4-(3-Bromo-4-fluorophenoxy)-7-((difluoromethyl)sulfonyl)-2,2-difluoro-2,3-dihydro-1H-inden-1-ol] in this work.

An EC50 [1] of 2560 nM was found for O=C1c2c(S(=O)(=O)C(F)F)ccc(Oc3ccc(F)c(F)c3)c2CC1(F)F [Compound 195, 7-((Difluoromethyl)sulfonyl)-4-(3,4-difluorophenoxy)-2,2-difluoro-2,3-dihydro-1H-inden-1-one] in this work.

An EC50 [1] of 290 nM was found for Cc1cc(Oc2ccc(S(=O)(=O)C(F)F)c3c2CC(F)(F)[C@H]3O)ccc1F [Compound 198, (S)-7-((Difluoromethyl)sulfonyl)-2,2-difluoro-4-(4-fluoro-3-methylphenoxy)-2,3-dihydro-1H-inden-1-ol] in this work.

An EC50 [1] of 130 nM was found for N#Cc1cc(Oc2ccc(S(=O)(=O)C(F)F)c3c2CC(F)(F)[C@H]3O)ccc1F [Compound 200, (S)-5-((7-((Difluoromethyl)sulfonyl)-2,2-difluoro-1-hydroxy-2,3-dihydro-1H-inden-4-yl)oxy)-2-fluorobenzonitrile] in this work.

An EC50 [1] of 3600 nM was found for N#Cc1cc(F)cc(Oc2ccc(S(=O)(=O)C(F)F)c3c2CCC3F)c1 (stereo not drawn) [Compound 202, 3-((7-((Difluoromethyl)sulfonyl)-1-fluoro-2,3-dihydro-1H-inden-4-yl)oxy)-5-fluorobenzonitrile] in this work.

An EC50 of 62 nM was found for CCS(=O)(=O)c1ccc(Oc2cc(F)cc(C#N)c2)c2c1[C@H](O)C(F)(F)C2 [Compound 206, (S)-3-((7-(Ethylsulfonyl)-2,2-difluoro-1-hydroxy-2,3-dihydro-1H-inden-4-yl)oxy)-5-fluorobenzonitrile] in this work.

An EC50 [1] of 830 nM was found for N#Cc1cc(F)cc(Oc2ccc(S(=O)(=O)C(F)F)c3c2CC(F)(F)[C@H]3N)c1 [Compound 207, (S)-3-((1-Amino-7-((difluoromethyl)sulfonyl)-2,2-difluoro-2,3-dihydro-1H-inden-4-yl)oxy)-5-fluorobenzonitrile] in this work.

An EC50 [1] of 1900 nM was found for N#Cc1cc(F)cc(Oc2ccc(S(=O)(=O)C3CCC3)c3c2CC(F)(F)[C@H]3O)c1 [Compound 209, (S)-3-((7-(Cyclobutylsulfonyl)-2,2-difluoro-1-hydroxy-2,3-dihydro-1H-inden-4-yl)oxy)-5-fluorobenzonitrile] in this work.

An EC50 [1] of 1600 nM was found for O=S(=O)(c1ccc(Oc2ccc(F)cc2)c2c1C(O)CC2)C(F)(F)F (stereo not drawn) [Compound 212, 4-(4-Fluorophenoxy)-7-((trifluoromethyl)sulfonyl)-2,3-dihydro-1H-inden-1-ol] in this work.

An EC50 [1] of 770 nM was found for Cc1cc(Oc2cc(F)cc(C#N)c2)c2c(c1S(C)(=O)=O)C(O)C(F)(F)C2 (stereo not drawn) [Compound 213, 3-((2,2-Difluoro-1-hydroxy-6-methyl-7-(methylsulfonyl)-2,3-dihydro-1H-inden-4-yl)oxy)-5-fluorobenzonitrile] in this work.

An EC50 [1] of 1270 nM was found for O=S(=O)(c1ccc(Oc2ccc(F)c(F)c2)c2c1C(O)CC2)C(F)(F)F (stereo not drawn) [Compound 214, 4-(3,4-Difluorophenoxy)-7-((trifluoromethyl)sulfonyl)-2,3-dihydro-1H-inden-1-ol] in this work.

An EC50 [1] of 22 nM was found for N#Cc1cc(F)cc(Oc2ccc(S(=O)(=O)CCl)c3c2CC(F)(F)[C@H]3O)c1 [Compound 215, (S)-3-((7-((Chloromethyl)sulfonyl)-2,2-difluoro-1-hydroxy-2,3-dihydro-1H-inden-4-yl)oxy)-5-fluorobenzonitrile] in this work.

An EC50 [1] of 3500 nM was found for O=S(=O)(c1ccc(Oc2ccc(F)c(Cl)c2)c2c1C(O)CC2)C(F)(F)F (stereo not drawn) [Compound 218, 4-(3-Chloro-4-fluorophenoxy)-7-((trifluoromethyl)sulfonyl)-2,3-dihydro-1H-inden-1-ol] in this work.

An EC50 [1] of 2100 nM was found for N#Cc1cncc(Oc2ccc(S(=O)(=O)C(F)(F)F)c3c2CCC3O)c1 (stereo not drawn) [Compound 220, 5-((1-Hydroxy-7-((trifluoromethyl)sulfonyl)-2,3-dihydro-1H-inden-4-yl)oxy)nicotinonitrile] in this work.

An EC50 [1] of 26 nM was found for O=S(=O)(c1ccc(Oc2ccc(F)c(Cl)c2)c2c1[C@H](O)C(F)(F)C2)C(F)(F)F [Compound 221, (S)-4-(3-Chloro-4-fluorophenoxy)-2,2-difluoro-7-((trifluoromethyl)sulfonyl)-2,3-dihydro-1H-inden-1-ol] in this work.

An EC50 [1] of 1800 nM was found for CS(=O)(=O)c1ccc(Oc2cc(F)cc(C#N)c2)c2c1C(O)CC2 (stereo not drawn) [Compound 222, 3-Fluoro-5-((1-hydroxy-7-(methylsulfonyl)-2,3-dihydro-1H-inden-4-yl)oxy)benzonitrile] in this work.

An EC50 of 63 nM was found for CS(=O)(=O)c1ccc(Oc2cc(F)cc(C#N)c2)c2c1C(O)C(F)(F)C2 (stereo not drawn) [Compound 223, 3-((2,2-Difluoro-1-hydroxy-7-(methylsulfonyl)-2,3-dihydro-1H-inden-4-yl)oxy)-5-fluorobenzonitrile] in this work.

An EC50 [1] of 180 nM was found for Cn1cc(Oc2ccc(S(=O)(=O)C(F)(F)F)c3c2CC(F)(F)[C@H]3O)cn1 [Compound 224, (S)-2,2-Difluoro-4-((1-methyl-1H-pyrazol-4-yl)oxy)-7-((trifluoromethyl)sulfonyl)-2,3-dihydro-1H-inden-1-ol] in this work.

An EC50 of 3500 nM was found for CS(=O)(=O)c1ccc(Oc2cc(F)cc(C#N)c2)c2c1[C@@H](O)C(F)(F)C2 [Compound 226, (R)-3-((2,2-Difluoro-1-hydroxy-7-(methylsulfonyl)-2,3-dihydro-1H-inden-4-yl)oxy)-5-fluorobenzonitrile] in this work.

An EC50 of 24 nM was found for [2H]C([2H])([2H])S(=O)(=O)c1ccc(Oc2cc(F)cc(C#N)c2)c2c1[C@]([2H])(O)C(F)(F)C2 [Compound 229] in this work.

An EC50 of 36 nM was found for CS(=O)(=O)c1ccc(Oc2cc(F)cc(C#N)c2)c2c1[C@H](O)[C@H](F)C2 [Compound 231, 3-Fluoro-5-(((1S,2R)-2-fluoro-1-hydroxy-7-(methylsulfonyl)-2,3-dihydro-1H-inden-4-yl)oxy)benzonitrile] in this work.

An EC50 of 35 nM was found for CS(=O)(=O)c1ccc(Oc2cc(F)cc(C#N)c2)c2c1C(O)C(F)C2 (stereo not drawn) [Compound 232, 3-Fluoro-5-((2-fluoro-1-hydroxy-7-(methylsulfonyl)-2,3-dihydro-1H-inden-4-yl)oxy)benzonitrile] in this work.

An EC50 of 15 nM was found for N#Cc1cncc(Oc2ccc(S(=O)(=O)C(F)(F)F)c3c2CC(F)(F)[C@H]3O)c1 [Compound 235, (S)-5-((2,2-Difluoro-1-hydroxy-7-((trifluoromethyl)sulfonyl)-2,3-dihydro-1H-inden-4-yl)oxy)nicotinonitrile] in this work.

An EC50 [1] of 120 nM was found for N#Cc1cc(F)cc(Oc2ccc(S(=O)(=O)C(F)F)c3c2CC(F)(F)[C@@H]3O)c1 [Compound 237, (R)-3-((7-((difluoromethyl)sulfonyl)-2,2-difluoro-1-hydroxy-2,3-dihydro-1H-inden-4-yl)oxy)-5-fluorobenzonitrile] in this work.

An EC50 [1] of 140 nM was found for O=S(=O)(c1ccc(Oc2ccc(F)c3[nH]ncc23)c2c1C(O)C(F)(F)C2)C(F)(F)F (stereo not drawn) [Compound 241, 2,2-Difluoro-4-((7-fluoro-1H-indazol-4-yl)oxy)-7-((trifluoromethyl)sulfonyl)-2,3-dihydro-1H-inden-1-ol] in this work.

An EC50 [1] of 510 nM was found for O=S(=O)(CF)c1ccc(Oc2cccc3sccc23)c2c1C(O)C(F)(F)C2 (stereo not drawn) [Compound 242, 4-(Benzo[b]thiophen-4-yloxy)-2,2-difluoro-7-((fluoromethyl)sulfonyl)-2,3-dihydro-1H-inden-1-ol] in this work.

An EC50 [1] of 920 nM was found for O=S(=O)(c1ccc(Oc2cccc3[nH]ncc23)c2c1C(O)C(F)(F)C2)C(F)(F)F (stereo not drawn) [Compound 243] in this work.

An EC50 [1] of 1710 nM was found for O=S(=O)(c1ccc(Oc2c(F)ccc3[nH]ncc23)c2c1C(O)C(F)(F)C2)C(F)(F)F (stereo not drawn) [Compound 244, 2,2-Difluoro-4-((5-fluoro-1H-indazol-4-yl)oxy)-7-((trifluoromethyl)sulfonyl)-2,3-dihydro-1H-inden-1-ol] in this work.

An EC50 of 24 nM was found for [2H][C@]1(O)c2c(S(C)(=O)=O)ccc(Oc3cc(F)cc(C#N)c3)c2CC1(F)F [Compound 247, (S)-3-((2,2-Difluoro-1-hydroxy-7-(methylsulfonyl)-2,3-dihydro-1H-inden-4-yl-1-d)oxy)-5-fluorobenzonitrile] in this work.

An EC50 [1] of 1470 nM was found for CS(=O)(=O)c1ccc(Oc2cc(C#N)cc(C(F)F)c2)c2c1C(O)CC2 (stereo not drawn) [Compound 249, 3-(Difluoromethyl)-5-((1-hydroxy-7-(methylsulfonyl)-2,3-dihydro-1H-inden-4-yl)oxy)benzonitrile] in this work.

An EC50 [1] of 2950 nM was found for N#Cc1cc(F)cc(Oc2ccc(S(=O)(=O)CCO)c3c2CC(F)(F)C3O)c1 (stereo not drawn) [Compound 250, 3-((2,2-Difluoro-1-hydroxy-7-((2-hydroxyethyl)sulfonyl)-2,3-dihydro-1H-inden-4-yl)oxy)-5-fluorobenzonitrile] in this work.

An EC50 of 53 nM was found for CNS(=O)(=O)c1ccc(Oc2cc(F)cc(F)c2)c2c1[C@H](O)C(F)(F)C2 [Compound 251, (S)-7-(3,5-Difluorophenoxy)-2,2-difluoro-3-hydroxy-N-methyl-2,3-dihydro-1H-indene-4-sulfonamide] in this work.

An EC50 [1] of 1080 nM was found for N#Cc1cncc(Oc2ccc(S(N)(=O)=O)c3c2CC(F)(F)[C@H]3O)c1 [Compound 253, (S)-7-((5-Cyanopyridin-3-yl)oxy)-2,2-difluoro-3-hydroxy-2,3-dihydro-1H-indene-4-sulfonamide] in this work.

An EC50 of 120 nM was found for CNS(=O)(=O)c1ccc(Oc2cc(F)cc(C#N)c2)c2c1[C@H](O)C(F)(F)C2 [Compound 254, (S)-7-(3-Cyano-5-fluorophenoxy)-2,2-difluoro-3-hydroxy-N-methyl-2,3-dihydro-1H-indene-4-sulfonamide] in this work.

An EC50 [1] of 1390 nM was found for O=[N+]([O-])c1ccc(Oc2cc(F)cc(Cl)c2)c2c1C(O)CC2 (stereo not drawn) [Compound 255, 4-(3-Chloro-5-fluorophenoxy)-7-nitro-2,3-dihydro-1H-inden-1-ol] in this work.
